Patent US20260345605A1, “THERAPEUTIC AGENTS FOR HEART FAILURE” (Ottawa Hospital Research Institute, priority 2023, published 2026)

How the values were obtained:
[1] = cited from earlier work
cardiomyocytes = experiment: Overall observation on remodeling of treated cardiomyocytes; type: cell-based
[2] = test system: NT Pro-BNP (iCell Cardiomyocyte); experiment: NT Pro-BNP ELISA in iCell Cardiomyocyte supernatants; type: cell-based, human; settings: 24 hour; for Mean NT Pro-BNP levels: iCell Cardiomyocyte, UT 2407.521
Procedure: (§1) A secondary screening was performed with 10 drugs identified from primary screening for their ability to induce physiological remodeling using morphometric analysis and measuring the levels of B-type natriuretic peptide (BNP), as a surrogate indicator of the hypertrophic response using ELISA. The compounds were selected based on the highly enriched targets identified in the drug set enrichment analysis with a high Z score. Cryopreserved iPS cell-derived cardiomyocytes (“iCell Cardiomyocytes”) obtained from Cellular Dynamics International (CDI, Madison, WI) were used as a cell model to perform the screening.
Pro-NT BNP levels in the culture media were measured following the 24 hour treatment using the Human NT Pro-BNP DuoSet ELISA kit (R&D Systems, Minnesota USA) as per the manufacturer's instruction. […] The plates were read on BMG BioTek Molecular Devices SpectraMax Microplate Reader at 450 nm to obtain the optical density followed by reading at 540 nm for wavelength correction.
Protein levels were identified by plotting a 4 parametric logistic regression curve using the standards provided with the kit.

[3] = test system: iPS cell-derived cardiomyocytes (iCell Cardiomyocytes); experiment: Secondary screening: morphometric analysis of iCell Cardiomyocytes; type: cell-based, human; settings: for Mean Cardiomyocyte Length: iCell Cardiomyocyte, UT 213.01323; for length in iCell cardiomyocyte compared to hCT1: iCell cardiomyocytes, 96 well, four concentrations
Description: (§2) A library of 800 small molecule compounds that can stimulate favorable cardiac adaptation in primary neonatal rat ventricular myocytes (NRVM) was screened. To identify the beneficial modifiers of hypertrophy, the Cellomics Arrayscan High Throughput Screening platform was employed to quantify morphometric features such as, for example, length, width, and length to width ratio from images acquired using a 10× lens for DAPI-labeled nuclei and CY3 labeled α actinin stained cardiomyocytes in a 96 well format. The lead compound was also screened in iPSC derived cardiomyocytes as a part of secondary screening as it offers a physiologically relevant human cell-based model.
as §1
The cells were plated at a density of 2.5×10^4 cells onto 25 mm diameter fibronectin coated glass coverslips in plating media for 48 hours. The media was replaced with Supplemented William's E (SWE) medium (SWE) media supplemented with cocktail containing penicillin-streptomycin, ITS+(insulin, transferrin, selenium complex, BSA, and linoleic acid), GlutaMAX™, and HEPES (Primary Hepatocyte Maintenance Supplements-GIBCO) for 48 hours. The cells were treated with controls (CT1-40 ng/mL, PE-100 uM) and drugs (AZD1152-HQPA, LY283519) at varying concentrations (2.5, 1, 0.5, and 0.25 uM) for 24 hours.
Post treatments, the cells were washed, fixed and treated with primary antibody, secondary antibody similar to the protocol of Example 3. The effect on the morphometric parameters was assessed using Cellomics Arrayscan Vti HCS reader. The Image acquisition was performed using the Zeiss AxioVision SE64 Imaging software and analyzed using the ImageJ2 software.
iCell cardiomyocytes were seeded at a density of 10,000 cells per well in a 96 well plate format. The cells were maintained as in Example 3 and were treated with controls (hCT1, PE) and drugs (AZD1152-HQPA, LY283519) at four different concentrations for 24 hours. The cells were then fixed and stained with a Actinin for cardiomyocytes followed by nuclear staining with DAPI. The plates were analyzed in Cellomics Arrayscan Vti HCS reader to assess morphometric changes following treatment.

Aurora B = settings: role: inhibitor; cited from earlier work
[4] = test system: phospho-Histone 3 (Ser10); experiment: phospho-Histone 3 (pH3 Ser10) staining in NRVM; type: cell-based, neonatal rat
Procedure: A one-way ANOVA test performed to assess statistical significance across treatment groups.
The effect of AZD1152-HQPA on cardiac remodeling was further validated using the phospho-Histone 3 (pH3 Ser10) staining which is the downstream target of aurora kinase B. The NRVMs were plated at a density of 2.5×10^4 cells onto 25 mm diameter collagen coated coverslip. The cells were treated with controls (hCT1, PE), AZD1152-HQPA followed by a combination of PE and AZD1152-HQPA.
Post treatment, the cells were washed, fixed, and were subjected to sequential staining of primary antibodies a Actinin and phospho-Histone 3 (Ser10). The images were acquired using the Zeiss AxioVision SE64 Imaging software and analyzed using the ImageJ software. […] The data are represented as Mean±Standard deviation.

aurora kinase B = experiment: pAurkB S727 immunofluorescence and remodeling in NRVM; type: cell-based, neonatal rat
Procedure: Immunofluorescence was performed to validate and assess the effect of aurora B kinase inhibitor on cardiomyocyte remodeling. NRVMs were plated at a density of 2.5×10^4 cells onto 25 mm diameter collagen coated coverslip. Primary cardiomyocytes were incubated with control serum-free medium (Ctrl, SF medium), hCT1 (0.5 nM), PE (100 μM), AZD1152-HQPA (1.5 μM) and assessed for aurora kinase B activation using pAurkB s727 antibody staining. The cells were treated with a combination of PE and AZD1152 HQPA where the cells were stimulated with the drug for 4 hours following the PE treatment for 24 hours.
Post treatment, the cells were washed, fixed, and were subjected to sequential staining of primary antibodies a Actinin and phospho-AurkB (S727). The images were acquired using the Zeiss AxioVision SE64 Imaging software and analyzed using the ImageJ2 software. Immunofluorescence was used to detect α-actinin, pAurkb S727, and nuclei were stained with DAPI.

CDK4/6 = settings: role: inhibitor; cited from earlier work
[5] = test system: streptozotocin (STZ)-induced cardiac dysfunction; settings: animal model of diabetic cardiomyopathy; cited from earlier work
[6] = test system: DOX-induced cardiomyocyte apoptosis and ventricular dysfunction; settings: cited from earlier work
CDK2 = settings: role: inhibitor; cited from earlier work
[7] = test system: primary neonatal rat ventricular myocytes (NRVM); experiment: Primary screen of 800 compounds for cardiomyocyte length (Cellomics Arrayscan morphometry, NRVM); type: cell-based, Sprague Dawley rat; settings: compared to PE-treated cardiomyocyte and a control; 24 hour treatment
Description: as §2
Neonatal rat ventricular myocytes (NRVM) were isolated from 2-day-old Sprague Dawley rat pups. The NRVM were cultured in plating media (Dulbecco Modified Eagle Media, 10% Fetal Bovine Serum, 100 U/mL penicillin, and […] streptomycin) at a density of 10,000 cells per well in a 96 well plate format. One day after isolation, myocytes were switched to serum-free maintenance media for 24 hours. […]
An algorithm was developed in Cellomics Arrayscan Vti HCS reader to measure the morphological characteristics such as cardiomyocyte length, width, length-width ratio, cell area, and the intensity of α-actinin. […]

cardiomyocytes (NRVMs) = experiment: Oxygen consumption rate of cardiomyocytes (Seahorse Mito Stress Test); type: cell-based, neonatal rat; settings: 24 h treatment; vs untreated control; FIG. 12
Procedure: OCR detection of cardiomyocytes was conducted with the Seahorse Xfe 24 analyzer (Agilent, Santa Clara, USA). Cardiomyocytes were seeded at a density of 8×10^4/well in a special Seahorse 24-well plate (102342-100, Seahorse). After treating with hCT1, PE and drug for 24 h, the medium was replaced with XF medium containing 10 mM D-(+)-glucose (G7021, Sigma-Aldrich), and 1 mM sodium pyruvate (11360070, Thermo Fisher). The plates were placed in a CO2-free 37 °C incubator for an hour before the measurement. A Seahorse XF Cell Mito Stress Test Kit (103015-100, Seahorse) was used for detection. The basal respiration of the NRVMs was detected, and ATP-linked OCR was analyzed after treatment with 1 μM oligomycin (ATP synthase inhibitor). Then, the uncoupling agent carbonyl [COMPOUND LEFT OUT] 4-(trifluoromethoxy) phenylhydrazone (FCCP) 0.5 μM was injected to detect maximal respiration. Finally, rotenone and antimycin A (AR) were used to abolish mitochondrial respiration by inhibiting complexes I and III, respectively.

[8] = test system: neonatal rat ventricular cardiomyocytes; experiment: Calcium transients (Fura2-AM) in neonatal rat ventricular cardiomyocytes; type: cell-based
Procedure: Method: Freshly isolated wildtype neonatal rat ventricular cardiomyocytes were plated onto laminin coated glass coverslides, rinsed once and then loaded with 1 μM Fura2-AM (Life Technologies) for 15 min at 37 °C. After washing the cells thrice with Tyrode solution, measuring chambers were transferred onto a Nikon Eclipse TE2000-U microscope equipped with a fluorescence detection system (IonOptix). Ca^2+ transient values were recorded according to the corresponding FRET experiments. F340/F380 values in Fura2-AM experiments were calculated from the ratios of 510 nm emission light measured at 340 and 380 nm excitations.

Molecule: CCN(CCO)CCCOc1ccc2c(Nc3cc(CC(=O)Nc4cccc(F)c4)[nH]n3)ncnc2c1 [AZD1152-HQPA, AZD1152-hydroxyquinazoline pyrazol anilide]
- conversion to the active AZD1152-HQPA in plasma [1]: converted rapidly
- cardiomyocyte remodeling (cardiomyocytes): adaptive and compensatory remodeling that resembles a physiologic growth response, adding sarcomeres in series
- Mean NT Pro-BNP levels ([2]; drug 0.25 μm): 2100.945 pg/mL
- Mean NT Pro-BNP levels ([2]; drug 0.5 μm): 1588.366 pg/mL
- Mean NT Pro-BNP levels ([2]; drug 1 μm): 2023.151 pg/mL
- Mean NT Pro-BNP levels ([2]; drug 2.5 μm): 2085.823 pg/mL
- Pro-NT BNP levels compared to UT and CT1 treated cells ([2]; iCell cardiomyocytes): comparable and/or reduced BNP levels
- Mean Cardiomyocyte Length ([3]; drug 0.25 μm, 24 hours): 236 µm
- Mean Cardiomyocyte Length ([3]; drug 0.5 μm, 24 hours): 232 µm
- Mean Cardiomyocyte Length ([3]; drug 1 μm, 24 hours): 218 µm
- Mean Cardiomyocyte Length ([3]; drug 2.5 μm, 24 hours): 223 µm
- Eccentric cardiac remodeling ([3]; iCell cardiomyocyte, 1 uM, FIG. 4A): Eccentric cardiac remodeling was observed
- cardiomyocyte length compared with CT1 treated cells ([3]; iCell cardiomyocytes on coverslips, 24 hours): comparable cardiomyocyte length
- length in iCell cardiomyocyte compared to hCT1 ([3]; 24 hours): increased length in iCell cardiomyocyte comparable to length induced by hCT1
- Aurora B inhibition (Aurora B): strong and selective inhibitor of Aurora B
- pH3 activity ([4]; AZD1152-HQPA alone): reduced pH3 activity
- pH3 activity ([4]; AZD1152-HQPA in combination with PE treatment): reduced pH3 activity
- aurora kinase b activation (aurora kinase B; AZD1152-HQPA 1.5 μM): inhibited aurora kinase b activation
- pathological effect of PE (aurora kinase B; drug for 4 hours following PE treatment for 24 hours): able to reverse the pathological effect of PE

Molecule: CC(=O)c1c(C)c2cnc(Nc3ccc(N4CCNCC4)cn3)nc2n(C2CCCC2)c1=O [Palbociclib]
- CDK4/6 inhibition (CDK4/6): CDK4/6 inhibitor
- effect on streptozotocin (STZ)-induced cardiac dysfunction [5]: inhibiting streptozotocin (STZ)-induced cardiac dysfunction by attenuating maladaptive cardiac remodeling

Molecule: COc1cccc2c1C(=O)c1c(O)c3c(c(O)c1C2=O)C[C@@](O)(C(=O)CO)C[C@@H]3O[C@H]1C[C@H](N)[C@H](O)[C@H](C)O1 [DOX, doxorubicin]
- DOX-induced effect on heart ([6]; CDK2 activation as mechanism): cardiomyocyte apoptosis and ventricular dysfunction

Molecule: CC[C@H](CO)Nc1nc(NCc2ccccc2)c2ncn(C(C)C)c2n1 [Roscovitine]
- CDK2 inhibition (CDK2): CDK2 inhibitor
- cardioprotective effect against DOX ([6]; DOX-associated contractile dysfunction and ventricular remodeling): attenuating myocytes from DOX-associated contractile dysfunction and ventricular remodeling

B1: CT1: Cardiotrophin 1 at 40 ng/mL was used as a positive control (protein, UniProt Q16619 1-201, looked up)
Cardiotrophin-1: MSRREGSLEDPQTDSSVSLLPHLEAKIRQTHSLAHLLTKYAEQLLQEYVQLQGDPFGLPSFSPPRLPVAGLSAPAPSHAGLPVHERLRLDAAALAALPPLLDAVCRRQAELNPRAPRLLRRLEDAARQARALGAAVEALLAALGAANRGPRAEPPAATASAASATGVFPAKVLGLRVCGLYREWLSRTEGDLGQLLPGGSA
- length of cardiomyocyte [7]: increase in the length of cardiomyocyte
- Mean NT Pro-BNP levels ([2]; control CT1): 2240.774 pg/mL
- oxygen consumption rate (OCR) (cardiomyocytes (NRVMs)): increase the rate of oxygen consumption
- Mean Cardiomyocyte Length ([3]; positive control CT1, 40 ng/mL, 24 hours): 229 µm
- length in iCell cardiomyocyte compared to hCT1 ([3]; 24 hours): positive modulator of cardiomyocyte length
- area under the curve (AUC) of calcium transient ([8]; compared to control, FIG. 11): increased AUC compared to control
- calcium transient levels ([8]; compared to control, FIG. 11): increase in calcium transient levels compared to control
- contractility / contractile function ([8]; inferred from peak calcium transient, AUC and time to peak): improved contractility by modest increase in peak calcium transient levels and AUC with modest decrease in time to attain those peak levels
